In patent publication US9663548B2, “10-α/β-D-arabinofuranosyl-undecenes as potential anti-mycobacterial agents and process for the preparation thereof” (priority 2011, dated 2017):
In brackets after ≈: the same amount, converted by molar mass.

Test system: Mycobacterium bovis BCG
Experiment: microbe, parasite or virus in culture
Format: cell-based
Conditions: for IC50: M. bovis BCG growth, 8 days incubation; for inhibition at 1 µg/mL: read-out: % Inhibition of growth of Mycobacterium Bovis BCG, at 1 μg/ml concentration
[1] = Mycobacterium tuberculosis variant bovis BCG, BCG, 192 h
[2] = Mycobacterium tuberculosis variant bovis BCG, BCG

Compound | MIC90 [1] [µg/mL] | IC50 [1] [µg/mL] | inhibition at 1 µg/mL [2] [%] | also measured
C=CCCCCCCCCCC1OC(CO)C(O)C1O (stereo not drawn) [Compound 1] | 15 (≈ 52.4 µM) | 1.1 (≈ 3.84 µM) | 48 | 
C=CCCCCCCCCC[C@H]1O[C@H](CO)[C@@H](O)[C@@H]1O [Compound 2] | 1.6 (≈ 5.59 µM) | 0.19 (≈ 0.663 µM) | 85 | IC50 (listed as α-C-glycoside): 0.2 µg/mL (≈ 0.698 µM)
C=CCCCCCCCCCC1OC(COC2OC(CO)C(O)C2O)C(O)C1O (stereo not drawn) [Compound 4] |  |  |  | IC50: 19 µg/mL (≈ 45.4 µM); % Inhibition of growth of Mycobacterium Bovis BCG (at 1 μg/ml concentration): 28%
C=CCCCCCCCCCO [Compound 10-undecenol, 10-undecenol, reference compound] |  |  |  | inhibition of M. bovis BCG (control experiment with aglycon) (FIG. 1d, doses 0.1 to 100 μg/ml): poor inhibitor
CC[C@@H](CO)NCCN[C@@H](CC)CO [Ethambutol, ethambutol, reference compound] | 2.9 (≈ 14.2 µM) | 0.2 (≈ 0.979 µM) | 85 | 
CO[C@H]1/C=C/O[C@@]2(C)Oc3c(C)c(O)c4c(O)c(c(/C=N/N5CCN(C)CC5)c(O)c4c3C2=O)NC(=O)/C(C)=C\C=C\[C@H](C)[C@H](O)[C@@H](C)[C@@H](O)[C@@H](C)[C@H](OC(C)=O)[C@@H]1C [Rifampicin, rifampicin, reference compound] |  | 0.02 (≈ 0.0243 µM) |  | inhibition at 0.2 µg/mL (Mycobacterium tuberculosis variant bovis BCG, BCG, read-out: % Inhibition of growth of Mycobacterium Bovis BCG, at 0.2 μg/ml): 99%
